Molecules are shown by their SMILES.

Chain of Receptor tyrosine-protein kinase erbB-2 (P04626 whole entry): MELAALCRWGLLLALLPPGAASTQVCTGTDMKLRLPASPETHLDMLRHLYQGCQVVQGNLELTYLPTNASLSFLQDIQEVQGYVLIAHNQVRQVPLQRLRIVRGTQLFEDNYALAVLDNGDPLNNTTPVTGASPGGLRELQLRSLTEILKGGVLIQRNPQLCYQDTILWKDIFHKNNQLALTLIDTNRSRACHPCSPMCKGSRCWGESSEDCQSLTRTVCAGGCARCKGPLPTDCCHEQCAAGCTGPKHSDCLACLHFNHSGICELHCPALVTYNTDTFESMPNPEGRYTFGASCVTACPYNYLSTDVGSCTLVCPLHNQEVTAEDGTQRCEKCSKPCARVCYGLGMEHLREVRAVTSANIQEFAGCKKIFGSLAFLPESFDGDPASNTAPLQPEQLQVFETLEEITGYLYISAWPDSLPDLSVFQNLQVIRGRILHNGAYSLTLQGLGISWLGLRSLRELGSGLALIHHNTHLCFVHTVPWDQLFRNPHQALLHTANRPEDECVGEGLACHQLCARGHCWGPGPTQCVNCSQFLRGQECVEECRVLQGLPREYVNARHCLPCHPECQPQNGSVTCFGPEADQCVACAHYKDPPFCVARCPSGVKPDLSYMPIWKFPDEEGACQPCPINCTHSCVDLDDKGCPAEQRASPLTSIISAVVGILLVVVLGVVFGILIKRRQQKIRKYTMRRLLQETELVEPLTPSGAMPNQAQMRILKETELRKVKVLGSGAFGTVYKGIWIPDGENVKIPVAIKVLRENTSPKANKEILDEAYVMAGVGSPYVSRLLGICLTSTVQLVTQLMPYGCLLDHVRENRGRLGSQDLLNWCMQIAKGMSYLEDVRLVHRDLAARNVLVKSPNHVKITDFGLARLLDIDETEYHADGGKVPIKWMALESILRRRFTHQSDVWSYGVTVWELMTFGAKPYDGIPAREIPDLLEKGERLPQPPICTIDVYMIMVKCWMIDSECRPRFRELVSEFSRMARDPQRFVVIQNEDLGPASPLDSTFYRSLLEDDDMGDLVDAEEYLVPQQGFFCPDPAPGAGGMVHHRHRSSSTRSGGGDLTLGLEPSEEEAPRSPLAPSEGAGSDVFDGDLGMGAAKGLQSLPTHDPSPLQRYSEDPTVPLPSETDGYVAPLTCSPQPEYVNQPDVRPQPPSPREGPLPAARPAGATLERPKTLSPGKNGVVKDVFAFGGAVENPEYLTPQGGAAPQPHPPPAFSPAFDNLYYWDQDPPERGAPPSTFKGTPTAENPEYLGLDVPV

This assay concerns the target Receptor tyrosine-protein kinase erbB-2 (Homo sapiens, UniProt P04626). The assay is described as follows: Inhibition of HER-2.
As for `O=C(NO)[C@H]1CC(OC(=O)N2CCCC2)CN[C@@H]1C(=O)N1CC[C@H](c2ccccc2)C1` (stereo partly drawn), the IC50 (commonly the midpoint of a concentration-inhibition curve) amounted to 0.028 µM.
With `O=C(NO)[C@H]1CC(CC(=O)N2CCCC2)CN[C@@H]1C(=O)N1CC=C(c2ccccc2)CC1` (stereo partly drawn) [(2S,3S)-N-hydroxy-5-(2-oxo-2-(pyrrolidin-1-yl)ethyl)-2-(4-phenyl-1,2,3,6-tetrahydropyridine-1-carbonyl)piperidine-3-carboxamide] the figure was 0.0043 µM; with `O=C(NO)[C@H]1CC(CC(=O)N2CCCC2)CN[C@@H]1C(=O)N1CC[C@H](c2ccccc2)C1` (stereo partly drawn) [(2S,3S)-N-hydroxy-5-(2-oxo-2-(pyrrolidin-1-yl)ethyl)-2-((R)-3-phenylpyrrolidine-1-carbonyl)piperidine-3-carboxamide], 0.0056 µM.
With `CN(C(=O)c1ccccc1)C1CN[C@H](C(=O)N2CC=C(c3ccccc3)CC2)[C@@H](C(=O)NO)C1` (stereo partly drawn) [(2S,3S)-N-hydroxy-5-(N-methylbenzamido)-2-(4-phenyl-1,2,3,6-tetrahydropyridine-1-carbonyl)piperidine-3-carboxamide] the figure was 0.01 µM.
The value for `CN(C(=O)c1ccccc1)C1CN[C@H](C(=O)N2CC[C@H](c3ccccc3)C2)[C@@H](C(=O)NO)C1` (stereo partly drawn) [(2S,3S)-N-hydroxy-5-(N-methylbenzamido)-2-((R)-3-phenylpyrrolidine-1-carbonyl)piperidine-3-carboxamide] was 0.029 µM; that for `CC(C)C(=O)N(C)C1CN[C@H](C(=O)N2CC=C(c3ccccc3)CC2)[C@@H](C(=O)NO)C1` (stereo partly drawn) [(2S,3S)-N-hydroxy-5-(N-methylisobutyramido)-2-(4-phenyl-1,2,3,6-tetrahydropyridine-1-carbonyl)piperidine-3-carboxamide] was 0.0155 µM.
`CC(C)C(=O)N(C)C1CN[C@H](C(=O)N2CC[C@H](c3ccccc3)C2)[C@@H](C(=O)NO)C1` (stereo partly drawn) [(2S,3S)-N-hydroxy-5-(N-methylisobutyramido)-2-((R)-3-phenylpyrrolidine-1-carbonyl)piperidine-3-carboxamide]: the IC50 is 0.052 µM.
The value for `COC(=O)N1C[C@@H](OC(=O)N2CCCC2)C[C@H](C(=O)NO)[C@H]1C(=O)N1CCN(c2ccccc2)CC1` [(2S,3S,5S)-methyl 3-(hydroxycarbamoyl)-2-(4-phenylpiperazine-1-carbonyl)-5-(pyrrolidine-1-carbonyloxy)piperidine-1-carboxylate] was 0.0081 µM; that for `O=C(NO)[C@H]1C[C@@H](OC(=O)N2CCCC2)CN[C@@H]1C(=O)N1CC=C(c2ccccc2)CC1` [(3R,5S,6S)-5-(hydroxycarbamoyl)-6-(4-phenyl-1,2,3,6-tetrahydropyridine-1-carbonyl)piperidin-3-yl pyrrolidine-1-carboxylate] was 0.03 µM.
The value for `CN1C[C@@H](OC(=O)N2CC=CC2)C[C@H](C(=O)NO)[C@H]1C(=O)N1CCN(c2ccccc2)CC1` [(3S,5S,6S)-5-(hydroxycarbamoyl)-1-methyl-6-(4-phenylpiperazine-1-carbonyl)piperidin-3-yl 2,5-dihydro-1H-pyrrole-1-carboxylate] was 0.0038 µM; that for `CN1C[C@@H](OC(=O)N2CCC(F)(F)C2)C[C@H](C(=O)NO)[C@H]1C(=O)N1CCN(c2ccccc2)CC1` [(3S,5S,6S)-5-(hydroxycarbamoyl)-1-methyl-6-(4-phenylpiperazine-1-carbonyl)piperidin-3-yl 3,3-difluoropyrrolidine-1-carboxylate] was 0.0505 µM; that for `CN1C[C@@H](OC(=O)N2CCCCCC2)C[C@H](C(=O)NO)[C@H]1C(=O)N1CCN(c2ccccc2)CC1` [(3S,5S,6S)-5-(hydroxycarbamoyl)-1-methyl-6-(4-phenylpiperazine-1-carbonyl)piperidin-3-yl azepane-1-carboxylate] was 0.0044 µM.
As to `CN1C[C@@H](OC(=O)N2CCC2)C[C@H](C(=O)NO)[C@H]1C(=O)N1CCN(c2ccccc2)CC1` [(3S,5S,6S)-5-(hydroxycarbamoyl)-1-methyl-6-(4-phenylpiperazine-1-carbonyl)piperidin-3-yl azetidine-1-carboxylate], the concentration for half-maximal inhibition (IC50) turned out to be 0.0445 µM.
The value for `CN1C[C@@H](OC(=O)N2CCCCCCC2)C[C@H](C(=O)NO)[C@H]1C(=O)N1CCN(c2ccccc2)CC1` [(3S,5S,6S)-5-(hydroxycarbamoyl)-1-methyl-6-(4-phenylpiperazine-1-carbonyl)piperidin-3-yl azocane-1-carboxylate] was 0.0275 µM; that for `CN(C)C(=O)O[C@H]1C[C@H](C(=O)NO)[C@@H](C(=O)N2CCN(c3ccccc3)CC2)N(C)C1` [(3S,5S,6S)-5-(hydroxycarbamoyl)-1-methyl-6-(4-phenylpiperazine-1-carbonyl)piperidin-3-yl dimethylcarbamate] was 0.031 µM; that for `CN1C[C@@H](OC(=O)N2CCCCC2)C[C@H](C(=O)NO)[C@H]1C(=O)N1CCN(c2ccccc2)CC1` [(3S,5S,6S)-5-(hydroxycarbamoyl)-1-methyl-6-(4-phenylpiperazine-1-carbonyl)piperidin-3-yl piperidine-1-carboxylate] was 0.0073 µM.
As to `CN1C[C@@H](OC(=O)N2CCCC2)C[C@H](C(=O)NO)[C@H]1C(=O)N1CCN(c2ccccc2)CC1` [(3S,5S,6S)-5-(hydroxycarbamoyl)-1-methyl-6-(4-phenylpiperazine-1-carbonyl)piperidin-3-yl pyrrolidine-1-carboxylate], half-maximal inhibition (IC50) was put at 0.0115 µM.
The value for `O=C(NO)[C@H]1C[C@H](OC(=O)N2CCCC2)CN[C@@H]1C(=O)N1CC=C(c2ccccc2)C1` [(5S,6S)-5-(hydroxycarbamoyl)-6-(3-phenyl-2,5-dihydro-1H-pyrrole-1-carbonyl)piperidin-3-yl pyrrolidine-1-carboxylate] was 0.011 µM; that for `O=C(NO)[C@H]1CC(OC(=O)N2CCCC2)CN[C@@H]1C(=O)N1CC=C(c2ccccc2)CC1` (stereo partly drawn) [(5S,6S)-5-(hydroxycarbamoyl)-6-(4-phenyl-1,2,3,6-tetrahydropyridine-1-carbonyl)piperidin-3-yl pyrrolidine-1-carboxylate] was 0.0056 µM.
The value for `O=C(NO)[C@H]1C[C@H](OC(=O)N2CCCC2)CN[C@@H]1C(=O)N1CCN(c2ccccc2)CC1` [(5S,6S)-5-(hydroxycarbamoyl)-6-(4-phenylpiperazine-1-carbonyl)piperidin-3-yl pyrrolidine-1-carboxylate] was 0.0038 µM; that for `O=C(NO)[C@H]1C[C@H](OC(=O)N2CCCC2)CN[C@@H]1C(=O)N1CCC(c2ccccc2)CC1` [(5S,6S)-5-(hydroxycarbamoyl)-6-(4-phenylpiperidine-1-carbonyl)piperidin-3-yl pyrrolidine-1-carboxylate] was 0.042 µM; that for `O=C(NO)[C@H]1CC(OC(=O)N2CCCC2)CN[C@@H]1C(=O)N1Cc2ccccc2C1` (stereo partly drawn) [(5S,6S)-5-(hydroxycarbamoyl)-6-(isoindoline-2-carbonyl)piperidin-3-yl pyrrolidine-1-carboxylate] was 0.07 µM.
The value for `CC(C)OC(=O)N(C)C1CN[C@H](C(=O)N2CC=C(c3ccccc3)CC2)[C@@H](C(=O)NO)C1` (stereo partly drawn) [isopropyl-(5S,6S)-5-(hydroxycarbamoyl)-6-(4-phenyl-1,2,3,6-tetrahydropyridine-1-carbonyl)piperidin-3-yl(methyl)carbamate] was 0.0085 µM.

(Values after BindingDB's records for doi:10.1016/j.bmcl.2009.07.052 (Incyte, 2009).)
